# Laboratory results from US6914045B2, “Glycopeptide antibiotics” (Wyeth Holdings Corporation, priority 2001, dated 2005).
# Assays:
# Enterococcus sp. = experiment: in vitro antibacterial evaluation, MIC by broth dilution; type: cell-based; conditions: broth dilution, 18 hours at 35° C.
# Procedure, shortened: (§1)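 MIC = lowest antibiotic concentration preventing visible growth; inoculum 5×10^5 CFU/mL; drug range 64-0.06 μg/mL; Muller-Hinton II […]; NCCLS M7-A2 guidance.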
# Staphylococcus sp. = experiment: as above; type: cell-based; conditions: broth dilution, 18 hours at 35° C.
# Procedure, shortened: as §1
# Streptococcus sp. = experiment: as above; type: cell-based; conditions: broth dilution, 18 hours at 35° C.
# Procedure, shortened: as §1
# Escherichia coli = experiment: as above; type: cell-based; conditions: 18 hours at 35° C.
# [1] = test system: Staphylococcus aureus-SMITH (GC 4543); experiment: acute lethal infection in mice; type: in vivo; conditions: acute lethal infection, female CD-1 mice, intraperitoneal challenge, intravenous 30 min. after infection, 7 day survival
# Procedure, shortened: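 Intraperitoneal challenge of female CD-1 mice with a bacterial dose lethal to untreated animals within 24-48 hr; single iv treatment 30 min later, 5 mice per dose level. Survival is scored at day 7 and pooled from three experiments to give the median effective dose.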
# [2] = anatomic pathology (histopathology of heart and kidney) in mice; type: in vivo; conditions: CD-1 mice, 20 mg/kg intravenously daily for 9 days, necropsy day 10, microscopic histopathology
# Procedure: Samples of tissues from necropsied mice were formalin-fixed, paraffin-embedded, sectioned, stained with hematoxylin and eosin, and examined microscopically. Histopathologic findings were recorded. These findings were subjectively graded on a scale corresponding to slight, mild, moderate, marked and severe as compared to untreated controls.
structure (smiles),measurement,setting,value
"CC(C1CCCCC1)C1NC(=O)CNC(=O)C(CO)NC(=O)C(C(O)C2CNC(=N)N2C2OC(CO)C(O)C(O)C2O)NC(=O)C(C(O)C2CNC(=N)N2)NC(=O)C(Cc2ccc(OC3OC(CO)C(OC4OC5COC6(OC5C(O)C4O)C4CC5CC(C4)CC6C5)C(O)C3O)cc2)NC1=O (stereo not drawn) [Example 221, Cyclo[3-cyclohexyl-2-aminobutanoyl-O-[4-O-[4,6-O-(2-adamantylidene)hexopyranosyl]hexopyranosyl]tyrosyl-3-(2-iminoimidazolidin-4-yl)seryl-3-(3-hexopyranosyl-2-iminoimidazolidin-4-yl)serylserylglycyl]]",MIC Enterococcus avium (GC 4558),Enterococcus sp.,2 µg/mL
same,MIC Enterococcus faecalis (ATCC 29212),Enterococcus sp.,2 µg/mL
same,MIC Enterococcus faecalis (GC 2242),Enterococcus sp.,2 µg/mL
same,MIC Enterococcus faecalis (GC 2691),Enterococcus sp.,2 µg/mL
same,MIC Enterococcus faecalis (GC 3059),Enterococcus sp.,1 µg/mL
same,MIC Enterococcus faecalis (GC 4552),Enterococcus sp.,2 µg/mL
same,MIC Enterococcus faecalis (GC 4553),Enterococcus sp.,2 µg/mL
same,MIC Enterococcus faecalis (GC 4554),Enterococcus sp.,2 µg/mL
same,MIC Enterococcus faecalis (GC 6189),Enterococcus sp.,1 µg/mL
same,MIC Enterococcus faecium (GC 2243),Enterococcus sp.,2 µg/mL
same,MIC Enterococcus faecium (GC 4556),Enterococcus sp.,2 µg/mL
same,MIC Enterococcus faecium (GC 4557),Enterococcus sp.,1 µg/mL
same,MIC Enterococcus faecalis (ATCC 29212),"Enterococcus sp.; inoculum 5×10^5 CFU/mL, strain ATCC 29212",2 µg/mL
same,MIC Enterococcus faecalis (GC 2242),"Enterococcus sp.; inoculum 5×10^5 CFU/mL, strain GC 2242",2 µg/mL
same,MIC Enterococcus faecium (GC 2243),"Enterococcus sp.; inoculum 5×10^5 CFU/mL, strain GC 2243",2 µg/mL
same,MIC Enterococcus faecalis (GC 2691),"Enterococcus sp.; inoculum 5×10^5 CFU/mL, strain GC 2691",2 µg/mL
same,MIC Enterococcus faecalis (GC 3059),"Enterococcus sp.; inoculum 5×10^5 CFU/mL, strain GC 3059",1 µg/mL
same,MIC Enterococcus faecalis (GC 4552),"Enterococcus sp.; inoculum 5×10^5 CFU/mL, strain GC 4552",2 µg/mL
same,MIC Enterococcus faecalis (GC 4553),"Enterococcus sp.; inoculum 5×10^5 CFU/mL, strain GC 4553",2 µg/mL
same,MIC Enterococcus faecalis (GC 4554),"Enterococcus sp.; inoculum 5×10^5 CFU/mL, strain GC 4554",2 µg/mL
same,MIC Enterococcus faecium (GC 4556),"Enterococcus sp.; inoculum 5×10^5 CFU/mL, strain GC 4556",2 µg/mL
same,MIC Enterococcus faecium (GC 4557),"Enterococcus sp.; inoculum 5×10^5 CFU/mL, strain GC 4557",1 µg/mL
same,MIC Enterococcus avium (GC 4558),"Enterococcus sp.; inoculum 5×10^5 CFU/mL, strain GC 4558",2 µg/mL
same,MIC Enterococcus faecalis (GC 6189),"Enterococcus sp.; inoculum 5×10^5 CFU/mL, strain GC 6189",1 µg/mL
same,MIC Staphylococcus aureus (ATCC 29213),Staphylococcus sp.; strain ATCC 29213,1 µg/mL
same,MIC Staphylococcus aureus (GC 1131),Staphylococcus sp.; strain GC 1131,2 µg/mL
same,MIC Staphylococcus aureus (GC 3051),Staphylococcus sp.; strain GC 3051,2 µg/mL
same,MIC Staphylococcus aureus (GC 3053),Staphylococcus sp.; strain GC 3053,1 µg/mL
same,MIC Staphylococcus aureus (GC 4541),Staphylococcus sp.; strain GC 4541,2 µg/mL
same,MIC Staphylococcus aureus (GC 4542),Staphylococcus sp.; strain GC 4542,2 µg/mL
same,MIC Staphylococcus aureus-SMITH (GC 4543),Staphylococcus sp.; strain GC 4543,2 µg/mL
same,MIC Staphylococcus aureus (GC 4544),Staphylococcus sp.; strain GC 4544,2 µg/mL
same,MIC Staphylococcus aureus (GC 4545),Staphylococcus sp.; strain GC 4545,2 µg/mL
same,MIC Staphylococcus haemolyticus (GC 4546),Staphylococcus sp.; strain GC 4546,2 µg/mL
same,MIC Coagulase Negative Staphylococcus (GC 4547),Staphylococcus sp.; strain GC 4547,2 µg/mL
same,MIC Coagulase Negative Staphylococcus (GC 4548),Staphylococcus sp.; strain GC 4548,1 µg/mL
same,MIC Coagulase Negative Staphylococcus (GC 4549),Staphylococcus sp.; strain GC 4549,1 µg/mL
same,MIC Coagulase Negative Staphylococcus (GC 4551),Staphylococcus sp.; strain GC 4551,2 µg/mL
same,MIC Streptococcus agalactiae (GC 4564),Streptococcus sp.,<0.12 µg/mL
same,MIC Streptococcus pneumoniae (ATCC 6301),Streptococcus sp.,<0.12 µg/mL
same,MIC Streptococcus pneumoniae (GC 1894),Streptococcus sp.,<0.12 µg/mL
same,MIC Streptococcus pneumoniae (GC 4565),Streptococcus sp.,<0.12 µg/mL
same,MIC Streptococcus pyogenes (GC 4563),Streptococcus sp.,<0.12 µg/mL
same,MIC Streptococcus pneumoniae (ATCC 6301),"Streptococcus sp.; inoculum 5×10^5 CFU/mL, strain ATCC 6301",<0.12 µg/mL
same,MIC Streptococcus pneumoniae (GC 1894),"Streptococcus sp.; inoculum 5×10^5 CFU/mL, strain GC 1894",<0.12 µg/mL
same,MIC Streptococcus pyogenes (GC 4563),"Streptococcus sp.; inoculum 5×10^5 CFU/mL, strain GC 4563",<0.12 µg/mL
same,MIC Streptococcus agalactiae (GC 4564),"Streptococcus sp.; inoculum 5×10^5 CFU/mL, strain GC 4564",<0.12 µg/mL
same,MIC Streptococcus pneumoniae (GC 4565),"Streptococcus sp.; inoculum 5×10^5 CFU/mL, strain GC 4565",<0.12 µg/mL
same,MIC Escherichia coli (ATCC 25922),Escherichia coli,64 µg/mL
same,MIC Escherichia coli (GC 4559),Escherichia coli,32 µg/mL
same,MIC Escherichia coli (GC 4560),Escherichia coli,2 µg/mL
same,"median effective dose (ED50), Staphylococcus aureus-SMITH (GC 4543)",[1],0.03 mg/kg
same,"Anatomical Pathology (Day 10), Heart",[2],0
same,"Anatomical Pathology (Day 10), Kidney",[2],0
